These results are taken from US5767096A, “Bromotiacumicin compounds” (Abbott Laboratories, priority 1996, dated 1998).

Converted amounts (≈) assume the structure as drawn. Where two headings read alike, the source gives them in different places.

Format in all cases: cell-based
Test [1] has as its system Staphylococcus aureus ATCC 6538P. Put plainly: In vitro antibiotic activity (MIC), agar dilution, brain heart infusion agar. Particulars: ~10^4 organisms per spot, 37° C., ~20 hours. On the procedure:
(§1) Optical rotations were measured on a Perkin-Elmer Model 241 polarimeter in a 10 cm cell. Fast atom bombardment mass spectra were measured on a Kratos MS-50 mass spectrometer. Ultraviolet spectra were recorded on a Perkin-Elmer Lambda 3B UV-visible spectrophotometer and infrared spectra on a Nicolet model 60SX FT-IR attached to a Nicolet computer. NMR spectra were acquired on either a General Electric GN500 or GN300 spectrometer. […] Rf values reported were acquired on Analtech TLC plates developed with chloroform:methanol (9:1, v:v) and were visualized using ceric sulfate spray reagent. Melting points were determined on a Hoover Unimelt and are reported uncorrected. Minimal inhibitory concentrations were determined by twofold agar dilution. Brain heart infusion agar was used for aerobes and Wilkins-Chalgren agar for anaerobes.
(§2) For primary screening of compounds of the invention against selected aerobic microorganisms, minimal inhibitory concentrations (MICs) were determined by the following agar dilution method: Series of two-fold dilutions of the test compounds were added to brain heart infusion agar. The agar plates were inoculated with approximately 10^4 organisms per spot of each of the organisms to be tested. These inoculated agar plates were then incubated at 37° C. for approximately 20 hours. The MICs were determined as the minimal concentration of test compound (in […]) that inhibited visible growth.
On the technique in general: Agar dilution tests growth on a series of plates holding different concentrations.

Test [2] deals with Enterococcus faecium ATCC 8043. The description is as above. The following applies: ~10^4 organisms per spot, 37° C., ~20 hours. The procedure:
as §1, §2

The test system of test [3] is Streptococcus pyogenes EES61. Described as above. Particulars: ~10^4 organisms per spot, 37° C., ~20 hours. On the procedure: as §1, §2
Test [4] deals with Staphylococcus epidermidis 3519. Described as above. The following applies: ~10^4 organisms per spot, 37° C., ~20 hours. On the procedure: as §1, §2
The next test has as its system Escherichia coli JUHL. The test is described as above. Particulars: ~10^4 organisms per spot, 37° C., ~20 hours. The procedure: as §1, §2
Test [5] has as its system Clostridium difficile ATCC 9689. Description: In vitro antibiotic activity (MIC) against anaerobes, agar dilution, Wilkins-Chalgren agar. Particulars: anaerobe, ~10^5 organisms per spot, 37° C., ~48 hours. The procedure: as §1
(§3) For primary screening of compounds of the invention against anaerobic bacteria such as Clostridium, minimal inhibitory concentrations (MICs) were determined by the following agar dilution method: Series of two-fold dilutions of the test compounds were added to Wilkins-Chalgren agar. The agar plates were inoculated with approximately 10^5 organisms per spot of each of the organisms to be tested. The inoculated agar plates were then incubated at 37° C. for approximately 48 hours. The MICs were determined as the minimal concentration of test compound (in […]) that inhibited visible growth.

Test [6] relates to Clostridium difficile 2532. The description is as above. Particulars: anaerobe, ~10^5 organisms per spot, 37° C., ~48 hours. On the procedure:
as §1, §3

The test system of test [7] is Clostridium difficile ATCC 17857. The test is described as above. Particulars: anaerobe, ~10^5 organisms per spot, 37° C., ~48 hours. On the procedure:
as §1, §3

The subject of test [8] is Clostridium perfringes ATCC 13124. Put plainly: microbe, parasite or virus in culture. The following applies: anaerobe, ~10^5 organisms per spot, 37° C., ~48 hours. On the procedure:
as §1, with “Fast” for “Optical rotations were measured on a Perkin-Elmer Model 241 polarimeter in a 10 cm cell. Fast”
as §3

The test system of test [9] is Bacteroides fragilis ATCC 25285. Put plainly: In vitro antibiotic activity (MIC) against anaerobes, agar dilution, Wilkins-Chalgren agar. The following applies: ATCC25285, anaerobe, ~10^5 organisms per spot, 37° C., ~48 hours. The procedure:
as §1, §3

Test [10] concerns Bacteriodes thetaiotaomicron ATCC 29741. The test is described as above. The following applies: anaerobe, ~10^5 organisms per spot, 37° C., ~48 hours. The procedure: as §1, §3
In the next test the test system is bacterial pathogens. Put plainly: In vitro activity against bacterial pathogens (summary in words). The following applies: from Table 2. On the procedure: Optical rotations were measured on a Perkin-Elmer Model 241 polarimeter in a 10 cm cell. Fast atom bombardment mass spectra were measured on a Kratos MS-50 mass spectrometer. Ultraviolet spectra were recorded on a Perkin-Elmer Lambda 3B UV-visible spectrophotometer and infrared spectra on a Nicolet model 60SX FT-IR attached to a Nicolet computer. NMR spectra were acquired on either a General Electric GN500 or GN300 spectrometer. NMR spectral data are reported in Table 1 (following Example 6 below). Rf values reported were acquired on Analtech TLC plates developed with chloroform:methanol (9:1, v:v) and were visualized using ceric sulfate spray reagent. Melting points were determined on a Hoover Unimelt and are reported uncorrected. Minimal inhibitory concentrations were determined by twofold agar dilution. Brain heart infusion agar was used for aerobes and Wilkins-Chalgren agar for anaerobes.
For primary screening of compounds of the invention against selected aerobic microorganisms, minimal inhibitory concentrations (MICs) were determined by the following agar dilution method: Series of two-fold dilutions of the test compounds were added to brain heart infusion agar. […] The MICs were determined as the minimal concentration of test compound (in […]) that inhibited visible growth. […]

Setting [11] is: Staphylococcus aureus, ATCC6538P, read-out: MIC.
[12] abbreviates: Enterococcus faecium, ATCC8043, read-out: MIC.
Setting [13] is: Streptococcus pyogenes, EES61, read-out: MIC.
Setting [14] is: Staphylococcus epidermidis, 3519, read-out: MIC.
Setting [15] is: Escherichia coli, read-out: MIC.
The mark [16] stands for this setting: Clostridioides difficile, ATCC9689, read-out: MIC.
[17] abbreviates: Clostridioides difficile, 2532, read-out: MIC.
Where [18] appears, read: Clostridioides difficile, ATCC17857, read-out: MIC.
The mark [19] stands for this setting: Clostridium, ATCC13124, read-out: MIC.

Regarding “4'",6'"-didechloro-4'"-bromotiacumicin C [Ex. 6]”, the MIC in test [1] is 50 µg/mL; in test [2] it was 25 µg/mL; in test [3] it was 50 µg/mL; in test [4], 50 µg/mL; with Escherichia coli JUHL, above 200 µg/mL; in test [5], 0.5 µg/mL. Further, the MIC in [6] came to 2 µg/mL; in test [7], 1 µg/mL; in [8], 0.06 µg/mL.

For the compound `CCc1c(Br)c(O)c(Cl)c(O)c1C(=O)O[C@H]1[C@H](O)[C@H](OC)[C@H](OC/C2=C\C=C\C[C@H](O)/C(C)=C/[C@H](CC)[C@@H](O[C@@H]3OC(C)(C)[C@@H](OC(=O)C(C)C)[C@H](O)[C@@H]3O)/C(C)=C/C(C)=C/C[C@@H](C(C)=O)OC2=O)O[C@@H]1C` [Ex. 4, 6'"-dechloro-6'"-bromo-18-ketotiacumicin B], the MIC in test [1] (setting [11]) was 50 µg/mL (≈ 45.4 µM); in test [2] (setting [12]), 50 µg/mL (≈ 45.4 µM); in [3] (setting [13]), 50 µg/mL (≈ 45.4 µM); in test [4] (setting [14]), 100 µg/mL (≈ 90.9 µM); with Escherichia coli JUHL (setting [15]), above 200 µg/mL; in [9], above 128 µg/mL. The MIC in [5] (setting [16]) is 0.25 µg/mL (≈ 0.227 µM); in [6] (setting [17]) it was 1 µg/mL (≈ 0.909 µM); in test [7] (setting [18]) it was 0.25 µg/mL (≈ 0.227 µM); in [10] it was above 128 µg/mL; in [8] (setting [19]) it was 0.015 µg/mL (≈ 0.0136 µM).

As to “4'",6'"-didechloro-4'"-bromotiacumicin B [Ex. 5]”, the MIC in [1] was 6.2 µg/mL; in [2], 12.5 µg/mL; in test [3], 25 µg/mL; in [4], 12.5 µg/mL; in the test with Escherichia coli JUHL it was above 200 µg/mL; in test [5], 0.12 µg/mL. In addition, the results for the MIC in test [6], in [7] and in test [8] were 0.5 µg/mL, 0.25 µg/mL and “<= 0.06 μg/mL”, respectively.

For `CCc1c(Br)c(O)c(Cl)c(O)c1C(=O)O[C@H]1[C@H](O)[C@H](OC)[C@H](OC/C2=C\C=C\C[C@H](O)/C(C)=C/[C@H](CC)[C@@H](O[C@@H]3OC(C)(C)[C@@H](OC(=O)C(C)C)[C@H](O)[C@@H]3O)/C(C)=C/C(C)=C/C[C@@H]([C@@H](C)O)OC2=O)O[C@@H]1C` [Ex. 3, 6'"-dechloro-6'"-bromotiacumicin B], the MIC is 6.2 µg/mL (≈ 5.62 µM) in [1] (setting [11]); 6.2 µg/mL (≈ 5.62 µM) in [2] (setting [12]); 6.2 µg/mL (≈ 5.62 µM) in [3] (setting [13]); 6.2 µg/mL (≈ 5.62 µM) in test [4] (setting [14]); above 200 µg/mL in the test on Escherichia coli JUHL (setting [15]); above 128 µg/mL in test [9]. Moreover, the MIC was 0.06 µg/mL (≈ 0.0544 µM) in test [5] (setting [16]); 0.06 µg/mL (≈ 0.0544 µM) in test [6] (setting [17]); 0.06 µg/mL (≈ 0.0544 µM) in [7] (setting [18]); above 128 µg/mL in test [10]; 0.03 µg/mL (≈ 0.0272 µM) in [8] (setting [19]). For the same compound, the “potency among compounds of this invention” value in the test on bacterial pathogens is listed as “the most potent of the compounds of this invention”. The “potency compared with tiacumicin B” value in the test with bacterial pathogens was “quite comparable to tiacumicin B”.
